pIC50: −log10 of the molar value. The source made the active and inactive calls. No cut-off for these calls is given here.
Molecular target: Tyrosine-protein phosphatase non-receptor type 6 (Homo sapiens, UniProt P29350)
Test: Inhibition of SHP1

Tyrosine-protein phosphatase non-receptor type 6, sequence (P29350 whole entry): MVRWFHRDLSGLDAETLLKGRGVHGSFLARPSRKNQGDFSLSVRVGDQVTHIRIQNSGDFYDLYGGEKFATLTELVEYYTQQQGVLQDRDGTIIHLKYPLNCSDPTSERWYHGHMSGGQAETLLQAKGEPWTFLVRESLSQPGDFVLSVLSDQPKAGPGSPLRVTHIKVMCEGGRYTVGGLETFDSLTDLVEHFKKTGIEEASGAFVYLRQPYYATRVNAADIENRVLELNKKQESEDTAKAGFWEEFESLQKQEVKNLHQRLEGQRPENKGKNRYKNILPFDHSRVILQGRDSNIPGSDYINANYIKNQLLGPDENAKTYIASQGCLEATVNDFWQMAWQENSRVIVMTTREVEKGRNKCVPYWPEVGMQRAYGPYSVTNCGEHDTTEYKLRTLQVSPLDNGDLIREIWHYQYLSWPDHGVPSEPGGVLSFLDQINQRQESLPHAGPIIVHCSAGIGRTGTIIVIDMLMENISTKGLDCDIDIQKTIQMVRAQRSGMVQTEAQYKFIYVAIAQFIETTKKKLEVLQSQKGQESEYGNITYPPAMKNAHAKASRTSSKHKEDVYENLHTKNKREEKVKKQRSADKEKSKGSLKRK

First: CC(=O)N(c1ccc2oc3c(c2c1)CCCC3)S(=O)(=O)c1ccc(C(=O)O)cc1
Second: CC(=O)c1c(C)oc2ccc(NS(=O)(=O)c3cccc(C(=O)O)c3)cc12
The pIC50 of the first is 0.27 log units lower: 3.80 for the first, 4.07 for the second. The second is the more potent here.

Molecular target: T1, Tyrosine-protein phosphatase non-receptor type 11 (Homo sapiens) (UniProt Q06124)
T1 sequence (whole entry): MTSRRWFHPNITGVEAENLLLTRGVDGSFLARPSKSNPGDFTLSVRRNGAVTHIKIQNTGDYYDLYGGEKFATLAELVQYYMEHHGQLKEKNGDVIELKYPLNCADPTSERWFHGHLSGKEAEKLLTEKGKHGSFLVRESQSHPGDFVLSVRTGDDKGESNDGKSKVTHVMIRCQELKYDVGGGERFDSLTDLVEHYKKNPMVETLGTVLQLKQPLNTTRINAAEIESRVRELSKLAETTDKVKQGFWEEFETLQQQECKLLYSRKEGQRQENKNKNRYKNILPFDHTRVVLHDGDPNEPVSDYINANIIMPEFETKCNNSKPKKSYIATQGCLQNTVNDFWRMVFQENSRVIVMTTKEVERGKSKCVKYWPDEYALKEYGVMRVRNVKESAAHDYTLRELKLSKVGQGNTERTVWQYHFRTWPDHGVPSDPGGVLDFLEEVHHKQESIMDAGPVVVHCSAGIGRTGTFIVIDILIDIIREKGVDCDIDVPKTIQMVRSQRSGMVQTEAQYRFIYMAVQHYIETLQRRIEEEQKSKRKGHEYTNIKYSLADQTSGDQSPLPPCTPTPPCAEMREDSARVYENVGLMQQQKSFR
Test: Inhibition of SHP2 catalytic domain assessed as inhibition of pNPP to p-nitrophenol conversion at 50 uM after 5 mins by spectrophotometry

Compared with `Cc1cc(C(=O)O)ccc1NC(=O)C1CC=CCC1C(=O)O` (centres undefined), `Cc1ccc(C(=O)O)cc1NC(=O)[C@H]1CC=CC[C@@H]1C(=O)O` is lower in inhibition: 13% for the first, 6% for the second.

First: O=C(O)c1ccc(NCc2ccccc2)c(NC(=O)C2CC=CCC2C(=O)O)c1 (centres undefined)
Second: O=C(O)c1ccc(NC(=O)C2CC=CCC2C(=O)O)cc1O (centres undefined)
The inhibition of the first is higher: 43% for the first, 4.5% for the second.

Going from `O=C(O)c1cccc(-c2ccc(/C=C/[N+](=O)[O-])o2)c1` to `CC(=O)c1c(C)oc2ccc(NS(=O)(=O)c3cccc(C(=O)O)c3)cc12`, the inhibition falls from 95% to 71.5%.

First: COc1ccc(/C=C2\C(=O)N(c3ccc(C(=O)O)cc3)N=C2C)cc1[N+](=O)[O-]
Second: COc1ccc(C2Nc3ccc(C(=O)O)cc3C3C=CCC32)cc1[N+](=O)[O-] (centres undefined)
The inhibition of the first is higher: 41% for the first, 1.5% for the second.

First: O=C(O)c1cc(N/C(=N\S(=O)(=O)c2ccccc2)c2ccccc2)ccc1O
Second: O=C(O)c1cccc(N/C(=N\S(=O)(=O)c2ccc(Cl)cc2)c2ccccc2)c1
The inhibition of the first is higher: 12.5% for the first, 10.5% for the second.

Going from `CC(=O)N(c1ccc2oc3c(c2c1)CCCC3)S(=O)(=O)c1ccc(C(=O)O)cc1` to `O=C(O)c1ccc(CNS(=O)(=O)c2ccc(C(=O)O)cc2)cc1`, the inhibition falls from 74.5% to 40.5%.

Compared with `O=C(O)c1ccccc1NS(=O)(=O)c1cccc2nsnc12`, `O=C(O)c1cc(S(=O)(=O)Nc2ccccc2C(=O)O)ccc1Br` is higher in inhibition: 0% for the first, 4.5% for the second.

Compared with `O=C(O)c1ccc(/N=N/c2c(O)c(C(=O)O)cc3ccccc23)cc1`, `O=C(O)c1ccc(C2(c3ccc(C(=O)O)cc3)OC(=O)c3ccccc32)cc1` is lower in inhibition: 8.5% for the first, 1.5% for the second.

Compared with `O=C(O)c1ccccc1NC(=O)c1ccccc1-c1ccccc1C(=O)O`, `Cc1ccccc1NS(=O)(=O)c1cccc(C(=O)Nc2ccccc2C(=O)O)c1` is higher in inhibition: 38% for the first, 50.5% for the second.

First: Cc1ccc(/C=C/C(=O)O)cc1S(=O)(=O)Nc1ccc(C(=O)O)cc1
Second: O=C(O)/C=C/c1cccc(NS(=O)(=O)c2ccc(C(=O)O)cc2)c1
The inhibition of the first is higher: 28% for the first, 5.5% for the second.

First: O=C(O)c1ccc(NS(=O)(=O)c2cccc(C(=O)Nc3cccc(C(=O)O)c3)c2)cc1
Second: O=C(O)c1ccc(NS(=O)(=O)c2cc(C(=O)O)ccc2Br)cc1
The inhibition of the first is higher: 44% for the first, 34.5% for the second.

Going from `O=C(O)c1ccccc1NS(=O)(=O)c1cccc(C(=O)N2CCCc3ccccc32)c1` to `O=C(O)c1cccc(NS(=O)(=O)c2ccc(Cl)c(C(=O)O)c2)c1`, the inhibition falls from 47% to 7%.

First: O=C(O)Cc1c(C(=O)O)[nH]c2ccc(C(=O)O)cc12
Second: O=C(O)Cc1ccc2[nH]c3ccc(CC(=O)O)cc3c2c1
The inhibition of the first is lower: 1% for the first, 52.5% for the second.

Compared with `CCOc1cc(/C=N/Nc2ccc(S(=O)(=O)O)cc2)ccc1O`, `O=[N+]([O-])c1ccc(/C=N/Nc2ccc(S(=O)(=O)O)cc2)cc1` is higher in inhibition: 51% for the first, 91.5% for the second.

First: O=C(O)c1cccc(NS(=O)(=O)c2ccc3c4c(cccc24)C(=O)N3)c1
Second: CC(=O)Nc1ccc(OS(=O)(=O)c2cccc(C(=O)O)c2)cc1
The inhibition of the first is higher: 4.5% for the first, 3.5% for the second.

First: O=C(CC(Cc1ccccc1)C(=O)O)Nc1ccc([N+](=O)[O-])cc1 (centres undefined)
Second: CS(=O)(=O)N(CC(=O)Nc1ccccc1C(=O)O)c1ccc(F)cc1
The inhibition of the first is lower: 1% for the first, 24% for the second.

Compared with `COc1cc(/C=C2\SC(=S)N(C(CC(=O)O)C(=O)O)C2=O)ccc1O` (centres undefined), `CC1CCN(S(=O)(=O)c2ccc3[nH]cc(C(=O)O)c(=O)c3c2)CC1` is lower in inhibition: 69.5% for the first, 0.5% for the second.

Molecular target: T2, Tyrosine-protein phosphatase non-receptor type 11 (Homo sapiens, UniProt Q06124)
T2 sequence (Q06124 whole entry): T1 sequence (whole entry)
Test: Inhibition of SHP2 catalytic domain assessed as inhibition of pNPP to p-nitrophenol conversion after 5 mins by spectrophotometry

`CC(=O)N(c1ccc2oc3c(c2c1)CCCC3)S(=O)(=O)c1ccc(C(=O)O)cc1` and `CC(=O)c1c(C)oc2ccc(NS(=O)(=O)c3cccc(C(=O)O)c3)cc12` are within 0.2 log units of each other in pIC50: 3.74 for the first, 3.75 for the second.

Compared with `O=C(O)C1=NN(c2ccc(S(=O)(=O)O)cc2)C(=O)C1`, `Cc1cc(S(=O)(=O)O)ccc1N1N=C(C(=O)O)CC1=O` is 0.58 log units higher in pIC50: 3.81 for the first, 4.39 for the second. The second is the more potent here.

Molecular target: T3, Tyrosine-protein phosphatase non-receptor type 1 (Homo sapiens, UniProt P18031)
T3 sequence (P18031 whole entry): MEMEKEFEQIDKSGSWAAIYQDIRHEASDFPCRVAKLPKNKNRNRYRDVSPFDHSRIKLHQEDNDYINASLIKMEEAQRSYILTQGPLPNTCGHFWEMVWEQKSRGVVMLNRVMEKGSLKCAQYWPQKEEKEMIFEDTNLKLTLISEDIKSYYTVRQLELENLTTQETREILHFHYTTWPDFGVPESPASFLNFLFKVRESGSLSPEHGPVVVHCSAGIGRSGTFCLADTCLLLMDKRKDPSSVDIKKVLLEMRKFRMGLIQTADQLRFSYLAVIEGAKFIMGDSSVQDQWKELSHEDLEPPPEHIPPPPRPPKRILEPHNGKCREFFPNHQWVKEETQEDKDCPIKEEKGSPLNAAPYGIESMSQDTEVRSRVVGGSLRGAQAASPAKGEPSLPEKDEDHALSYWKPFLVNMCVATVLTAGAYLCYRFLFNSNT
Test: Inhibition of PTP1B

First: CC(=O)N(c1ccc2oc3c(c2c1)CCCC3)S(=O)(=O)c1ccc(C(=O)O)cc1
Second: CC(=O)c1c(C)oc2ccc(NS(=O)(=O)c3cccc(C(=O)O)c3)cc12
The pIC50 of the first is 0.50 log units lower: 3.92 for the first, 4.42 for the second. The second is the more potent here.

Molecular target: T1, Tyrosine-protein phosphatase non-receptor type 11 (Homo sapiens)
Test: Inhibition of SHP2 catalytic domain assessed as inhibition of pNPP to p-nitrophenol conversion at 1000 uM after 5 mins by spectrophotometry

For `O=C(O)C1=NN(c2ccccc2)C(=O)C1`, the inhibition was “inactive”.
For `CC1=NN(c2ccc(S(=O)(=O)O)cc2C)C(=O)C1`, the inhibition was “inactive”.
